Measured values as given in patent US10709704B2, “Treating neural disease with tyrosine kinase inhibitors” (GEORGETOWN UNIVERSITY, priority 2012, dated 2020).

Experiments:
Assay type in all cases: in vivo, mouse
caspase-3 activity = experiment: Caspase-3 activity, lentiviral α-Synuclein mice
Excerpt: To measure caspase-3 activity in the animal models, we used EnzChek® caspase-3 assay kit #1 (Invitrogen) on cortical extracts and Z-DEVD-AMC substrate and the […] was read according to manufacturer's protocol.

[1] = system: dopamine and homovanillic acid (HVA) levels; experiment: Dopamine and HVA ELISA, lentiviral α-Synuclein mice; settings: 10 mg/kg Nilotinib or 5 mg/Kg Bosutinib
Method: Total brain or mesencephalon were collected and fresh 50 μl (1 μg/μl) brain lysates (in STEN buffer) were detected with 50 μl primary antibody (1 h) and 100 μl anti-rabbit secondary antibody (30 min) at RT according to manufacturer's protocols (Abnova, Cat # BOLD01090J00011) for DA and (Eagle Biosciences, Cat # HVA34-K01) for HVA.

transgenic A53T mice = experiment: Rotarod, A53T mice
Excerpt: Mice were placed on an accelerating rotarod (Columbus Instruments) equipped with individual timers for each mouse. […] All values were converted to % control.

With Cc1cn(-c2cc(NC(=O)c3ccc(C)c(Nc4nccc(-c5cccnc5)n4)c3)cc(C(F)(F)F)c2)cn1 [Nilotinib] the “caspase-3 activity, Nilotinib vs DMSO” value (caspase-3 activity; LacZ injected mice, daily IP 10 mg/kg) was “did not result in any difference”, the caspase-3 activity (caspase-3 activity; lentiviral α-Synuclein mice, daily IP 10 mg/kg Nilotinib 3 weeks) was 140 % of LacZ levels and the “α-synuclein induced loss of dopamine and HVA levels (ELISA)” value [1] was “reversed these effects”. For the same molecule, the “increase in rotarod motor performance above control levels” value (transgenic A53T mice; 6-8 months old A53T mice, Nilotinib) was 45% and the “motor performance (rotarod)” value (transgenic A53T mice; A53T mice, 10 mg/kg Nilotinib or 5 mg/Kg Bosutinib once daily for 3 weeks) was “increased”.
